Values after ≈ are worked out from the molar mass of the structure shown.
Legend:
[1] = tested on: Anas platyrhynchos; details: reproductive
[2] = tested on: Apis mellifera; details: acute, duration: 48 hours, mortality
[3] = tested on: Bibionidae; details: chronic/long-term; duration: 21 days; other
[4] = tested on: Canidae; details: chronic; duration: 52 weeks; oral; Dog Other; organ weight
[5] = tested on: Colinus virginianus; details: acute, oral, mortality
[6] = tested on: Cyprinodon variegatus; details: acute; duration: 96 hours; mortality
[7] = tested on: Daphnia magna; details: chronic/long-term; duration: 21 days; mobility
[8] = tested on: Pimephales promelas; details: chronic/long-term; duration: 33 days; other
[9] = tested on: Rattus norvegicus
[10] = tested on: Tagia sp.; details: acute; duration: 14 days; mortality
[11] = tested on: Aphidius rhopalosiphi; assay: LR50; higher = less toxic; details: acute; duration: 48 hours; mortality
[12] = tested on: Typhlodromus pyri; assay: LR50; higher = less toxic; details: acute; duration: 7 days; mortality

CCOC(=O)OC1=C(c2cc(C)ccc2C)C(=O)NC12CCC(OC)CC2 (stereo unspecified) [Spirotetramat]
NOAEL [1]: 4 mg/kg-day | LD50 ([2]; dermal): > 100 µg/piece | LD50 ([2]; oral, unspecified): > 107 µg/piece | NOEC [3]: 0.1 mg/L | NOAEL [4]: 5 mg/kg-day | LC50 ([5]; diet): > 475 mg/kg-day | LD50 [5]: > 2000 mg/kg-day | LC50 [6]: 1.96 µg/mL (≈ 5.25 µM) | NOEC [7]: 2 mg/L | NOEC [8]: 0.534 mg/L | NOAEL ([9]; acute, clinical signs): 100 mg/kg-day | LD50 ([9]; acute, oral, mortality): > 2000 mg/kg-day | NOAEL ([9]; reproduction developmental, body weight): 70 mg/kg-day | LC50 [10]: > 1000 mg/kg | LR50 [11]: 115 g/ha | LR50 [12]: 0.333 g/ha
